Reference: patent US20240150335A1, “FUSED RING DERIVATIVES CONTAINING 1,4-OXAZEPANE” (MEDSHINE DISCOVERY INC., priority 2021, published 2024)

Key:
DPP1 of U937 cells = DPP1 of U937 cells (Homo sapiens (Human), UniProt P53634); assay: Activity test of inhibiting DPP1 in U937 cells; type: cell-based; details: Gly-Phe-AFC probe, read-out: IC50, inhibitory activity on DPP1 of U937 cells
Experimental: Experimental Example 2: Activity Test of Inhibiting DPP1 in U937 Cells
Experimental Materials: • 1) Experimental reagents and consumables
The cell plate was placed in a carbon dioxide incubator for 1 day; • (3) after incubation for 1 hour, 100 μM Gly-Phe-AFC probe solution was added thereto, that is, 60 mM Gly-Phe-AFC probe stock solution was diluted with culture medium to 500 μM working solution; the working solution in 10 μL per well was transferred into the cell plate, and the cell plate was incubated in a carbon dioxide incubator for 1 hour;
3) the plate was read, and the data were analyzed: • (1) plate reading: after the cell incubation was completed, the cell plate was taken out, and the plate was read on Victor Nivo.
Using the equation (Sample−Min)/(Max−Min)×100% to convert the raw data into inhibition rate, the IC50 value might be obtained by curve fitting with four parameters (obtained by “log (inhibitor) vs. response—Variable slope” mode in GraphPad Prism).

[1] = molecular target: Recombinant human cathepsin C/DPP1; assay: Inhibition effect test of DPP1 enzyme activity; type: biochemical; details: recombinant human cathepsin C/DPP1, Gly-Arg-AMC substrate 12.5 μM, 25° C. 60 minutes; read-out: IC50, inhibitory activity on DPP1 enzyme
Experimental: Experimental Example 1: Inhibition Effect Test of DPP1 Enzyme Activity
Recombinant human cathepsin C/DPP1 was purchased from R&D Systems;
Recombinant human cathepsin L (rhCathepsin L) was purchased from R&D Systems;
Gly-Arg-AMC (hydrochloride) was purchased from CAYMAN CHEMICAL COMPANY.
1× activation buffer: 5 mM DTT 0.01% (V/V) Triton X-100 (preparation for current use);
1× assay buffer: 50 mM NaCl 5 mM DTT 0.01% (V/V) Triton X-100 (preparation for current use);
1× activation buffer was used to dilute recombinant human cathepsin C/DPP1 enzyme and recombinant human cathepsin L (rhCathepsin L) enzyme to concentrations of 2 ng/μL and 0.4 ng/μL, respectively; equal volume of two working solutions of enzyme was taken, mixed well and incubated at 25° C. for 60 minutes;
the compounds to be tested were 5-fold diluted with a multi-channel pipette to the 8th concentration, i.e., diluted from 1 mM to 12.8 nM. Then 1× experimental buffer was used to dilute each compound to be tested by gradient into a 4% DMSO working solution. The working solution was added to corresponding wells for 5 μL/well, and duplicate experiment was set. The mixture was centrifuged at 1000 rpm for 1 minute;
5 μL/well of the enzyme mixture after incubation was taken and added to the white microwell plate. At this time, the amount of DPP1 enzyme in each well was 5 ng; 1× experimental buffer in 5 μL/well was added to the blank control well;
Gly-Arg-AMC (hydrochloride) was diluted to 25 μM with 1× assay buffer. The diluted mixture in 10 μL/well was added to a white microwell plate. The substrate concentration was 12.5 μM at this time, and the microplate was centrifuged in a centrifuge at 1000 rpm for 1 minute. […] After centrifugation, the microplate was covered with membrane and incubated at 25° C. for 60 minutes;
after incubation, fluorescence detection was performed using a multi-label analyzer with an excitation wavelength of 360 nm and an emission wavelength of 460 nm.
Using the equation (Sample−Min)/(Max−Min)×100% to convert the raw data into enzyme activity, the IC50 value might be obtained by curve fitting with four parameters (obtained by “log (inhibitor) vs. response—Variable slope” mode in GraphPad Prism).
Max: Contains recombinant human cathepsin C/DPP1, recombinant human cathepsin L (rhCathepsin L), and Gly-Arg-AMC (hydrochloride)
Min: No recombinant human cathepsin C/DPP1 and recombinant human cathepsin L (rhCathepsin L)

DPP1 of U937 cells, sequence (P53634 25-134): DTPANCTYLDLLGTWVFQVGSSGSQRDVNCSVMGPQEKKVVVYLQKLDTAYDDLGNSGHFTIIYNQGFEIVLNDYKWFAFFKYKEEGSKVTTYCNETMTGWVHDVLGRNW
DPP1 of U937 cells, sequence (P53634 231-394): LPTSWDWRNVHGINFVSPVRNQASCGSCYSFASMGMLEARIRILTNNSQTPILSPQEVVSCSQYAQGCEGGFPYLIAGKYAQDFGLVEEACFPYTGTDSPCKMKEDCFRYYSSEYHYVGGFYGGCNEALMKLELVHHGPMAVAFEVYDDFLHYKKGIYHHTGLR
DPP1 of U937 cells, sequence (P53634 395-463): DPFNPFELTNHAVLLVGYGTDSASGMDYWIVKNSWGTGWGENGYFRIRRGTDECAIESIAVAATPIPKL

Cn1ncc2ccc(-c3ccc(C[C@@H](C#N)NC(=O)[C@@H]4CNCCCO4)cc3)cc21 [Compound 2]
IC50 (DPP1 of U937 cells): 8.95 nM
IC50 [1]: 26.8 nM

Cn1nnc2ccc(-c3ccc(C[C@@H](C#N)NC(=O)[C@@H]4CNCCCO4)cc3)cc21 [Compound 4]
IC50 (DPP1 of U937 cells): 1.32 nM
IC50 [1]: 10.8 nM

CN1Cc2cc(-c3ccc(C[C@@H](C#N)NC(=O)[C@@H]4CNCCCO4)cc3)ccc2C1=O [Compound 5]
IC50 (DPP1 of U937 cells): 9.32 nM
IC50 [1]: 28.3 nM

Cn1nnc2ccc(-c3ccc(C[C@@H](C#N)NC(=O)[C@@H]4CNCCCO4)c(F)c3)cc21 [Compound 7]
IC50 (DPP1 of U937 cells): 2.49 nM
IC50 [1]: 2.52 nM

CC(C)n1ncc2ccc(-c3ccc(C[C@@H](C#N)NC(=O)[C@@H]4CNCCCO4)cc3)cc21 [Compound 9]
IC50 [1]: 14 nM

CC(C)n1ncc2ccc(-c3ccc(C[C@@H](C#N)NC(=O)[C@@H]4CNCCCO4)c(F)c3)cc21 [Compound 10]
IC50 (DPP1 of U937 cells): 8.53 nM
IC50 [1]: 4.39 nM

N#C[C@H](Cc1ccc(-c2ccc3cnn(C4CCOCC4)c3c2)cc1F)NC(=O)[C@@H]1CNCCCO1 [Compound 12]
IC50 (DPP1 of U937 cells): 1.81 nM
IC50 [1]: 2.38 nM

N#C[C@H](Cc1ccc(-c2ccc3nccn3c2)cc1F)NC(=O)[C@@H]1CNCCCO1 [Compound 13]
IC50 (DPP1 of U937 cells): 6.33 nM
IC50 [1]: 20.4 nM

N#C[C@@H](Cc1ccc(-c2ccc3nccn3c2)cc1F)NC(=O)[C@@H]1CNCCCO1 [Compound 14]
IC50 (DPP1 of U937 cells): 2.79 nM
IC50 [1]: 28.1 nM

CN1CCOc2ccc(-c3ccc(C[C@H](C#N)NC(=O)[C@@H]4CNCCCO4)c(F)c3)cc21 [Compound 15]
IC50 [1]: 3.65 nM

Cn1ncc2ccc(-c3ccc(C[C@H](C#N)NC(=O)[C@@H]4CNCCCO4)c(Cl)c3)cc21 [Compound 16]
IC50 [1]: 9.18 nM

Cc1cc(-c2ccc3cnn(C)c3c2)ccc1C[C@H](C#N)NC(=O)[C@@H]1CNCCCO1 [Compound 17]
IC50 [1]: 22.5 nM

Cn1nc(F)c2ccc(-c3ccc(C[C@H](C#N)NC(=O)[C@@H]4CNCCCO4)c(F)c3)cc21 [Compound 18]
IC50 (DPP1 of U937 cells): 5.43 nM
IC50 [1]: 1.23 nM

N#C[C@@H](Cc1ccc(-c2cc(F)c3cn[nH]c3c2)cc1F)NC(=O)[C@@H]1CNCCCO1 [Compound 19]
IC50 (DPP1 of U937 cells): 8.7 nM
IC50 [1]: 4.55 nM

N#C[C@@H](Cc1ccc(-c2cnc3cc[nH]c3c2)cc1F)NC(=O)[C@@H]1CNCCCO1 [Compound 21]
IC50 (DPP1 of U937 cells): 9.27 nM
IC50 [1]: 17.3 nM

N#C[C@@H](Cc1ccc(-c2ccc3cnn(C4CCNCC4)c3c2)cc1F)NC(=O)[C@@H]1CNCCCO1 [Compound 22]
IC50 [1]: 0.76 nM

CN1CCC(n2ncc3ccc(-c4ccc(C[C@H](C#N)NC(=O)[C@@H]5CNCCCO5)c(F)c4)cc32)CC1 [Compound 24]
IC50 (DPP1 of U937 cells): 3.12 nM
IC50 [1]: 1 nM
